Results reported in patent publication US11427553B2, “Dihydrooxadiazinones” (Bayer Aktiengesellschaft, priority 2017, dated 2022).

How the values were obtained:
human full length PDE3A = human full length PDE3A (Homo sapiens (Human), UniProt Q14432); assay: Assay 4 PDE3A enzyme inhibition (3H-cAMP SPA); format: biochemical; conditions: Sf9 cell extract
Outline: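 Hydrolysis of [8-3H]cAMP by Sf9-expressed full-length PDE3A was measured by scintillation proximity, with enzyme diluted to keep kinetics linear and substrate consumption below 70%. Incubation ran 60 min at room temperature at pH 7.5.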

SK-MEL-3 cells = assay: Assay 1 cell proliferation measurement (CTG, 72 h), SK-MEL-3; format: cell-based, human; conditions: Homo sapiens, SK-MEL3; Assay 1, 72 h, Cell Titer Glo; read-out: SK-MEL-3 IC50 [nM] (melanoma)
Outline: (§1)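 Cells were plated, grown overnight at 37 °C, then treated 72 h with a 10-step 2.5-fold dilution series from 100 nM maximum final (0.3% DMSO vehicle). Viability was read by CellTiter-Glo luminescence. IC50 from a 4-parameter fit, normalised to a 0 h plate (maximum inhibition) and DMSO control (minimum inhibition).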

human full length PDE3B = human full length PDE3B (Homo sapiens (Human), UniProt Q13370); assay: Assay 5 PDE3B enzyme inhibition (3H-cAMP SPA); format: biochemical; conditions: Sf9 cell extract
Outline: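 Sf9 cell extract expressing human full-length PDE3B, diluted for linear kinetics (<70% substrate use), in 50 mM Tris/HCl pH 7.5, 8.3 mM MgCl2, 1.7 mM EDTA. [8-3H]cAMP substrate, 60 min at room temperature; stopped with yttrium SPA beads, scintillation counting. IC50 from sigmoidal activity vs log concentration curves.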

HeLa cells = assay: Assay 1 cell proliferation measurement (CTG, 72 h), HeLa; format: cell-based, human; conditions: Homo sapiens, HeLa; Assay 1, 72 h, Cell Titer Glo; read-out: HeLa IC50 [nM] (Cervical cancer)
Outline: as §1

human full length PDE3A, sequence (Q14432 whole entry): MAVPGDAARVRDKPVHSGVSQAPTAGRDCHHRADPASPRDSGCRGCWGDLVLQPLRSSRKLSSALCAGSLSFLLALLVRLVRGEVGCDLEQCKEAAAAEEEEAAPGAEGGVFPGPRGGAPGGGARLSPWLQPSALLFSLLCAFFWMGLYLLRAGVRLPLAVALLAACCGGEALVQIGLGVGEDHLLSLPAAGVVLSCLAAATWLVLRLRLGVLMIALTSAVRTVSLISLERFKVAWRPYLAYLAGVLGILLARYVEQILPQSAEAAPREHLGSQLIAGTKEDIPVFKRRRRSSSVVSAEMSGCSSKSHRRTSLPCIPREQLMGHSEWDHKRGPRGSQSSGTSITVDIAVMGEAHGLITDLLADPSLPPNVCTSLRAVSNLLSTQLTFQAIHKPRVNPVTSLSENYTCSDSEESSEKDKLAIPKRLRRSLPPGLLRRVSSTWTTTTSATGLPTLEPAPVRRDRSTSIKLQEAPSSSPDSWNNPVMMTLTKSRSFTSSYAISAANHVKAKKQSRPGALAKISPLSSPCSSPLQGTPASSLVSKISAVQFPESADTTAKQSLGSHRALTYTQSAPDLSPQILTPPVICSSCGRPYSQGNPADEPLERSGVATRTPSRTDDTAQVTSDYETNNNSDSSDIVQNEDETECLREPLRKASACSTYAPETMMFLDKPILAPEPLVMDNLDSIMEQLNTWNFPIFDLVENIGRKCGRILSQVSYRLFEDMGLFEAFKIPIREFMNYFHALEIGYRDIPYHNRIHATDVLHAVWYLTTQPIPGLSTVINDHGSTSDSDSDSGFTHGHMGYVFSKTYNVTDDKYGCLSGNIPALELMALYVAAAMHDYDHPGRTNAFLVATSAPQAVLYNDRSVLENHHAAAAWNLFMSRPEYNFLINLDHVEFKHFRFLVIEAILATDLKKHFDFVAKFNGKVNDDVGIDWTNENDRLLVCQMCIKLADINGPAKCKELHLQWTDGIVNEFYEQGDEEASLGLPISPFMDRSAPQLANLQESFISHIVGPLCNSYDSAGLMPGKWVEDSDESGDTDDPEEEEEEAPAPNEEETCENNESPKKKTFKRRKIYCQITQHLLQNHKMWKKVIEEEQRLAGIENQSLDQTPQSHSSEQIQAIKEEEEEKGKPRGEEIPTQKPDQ
human full length PDE3B, sequence (Q13370 whole entry): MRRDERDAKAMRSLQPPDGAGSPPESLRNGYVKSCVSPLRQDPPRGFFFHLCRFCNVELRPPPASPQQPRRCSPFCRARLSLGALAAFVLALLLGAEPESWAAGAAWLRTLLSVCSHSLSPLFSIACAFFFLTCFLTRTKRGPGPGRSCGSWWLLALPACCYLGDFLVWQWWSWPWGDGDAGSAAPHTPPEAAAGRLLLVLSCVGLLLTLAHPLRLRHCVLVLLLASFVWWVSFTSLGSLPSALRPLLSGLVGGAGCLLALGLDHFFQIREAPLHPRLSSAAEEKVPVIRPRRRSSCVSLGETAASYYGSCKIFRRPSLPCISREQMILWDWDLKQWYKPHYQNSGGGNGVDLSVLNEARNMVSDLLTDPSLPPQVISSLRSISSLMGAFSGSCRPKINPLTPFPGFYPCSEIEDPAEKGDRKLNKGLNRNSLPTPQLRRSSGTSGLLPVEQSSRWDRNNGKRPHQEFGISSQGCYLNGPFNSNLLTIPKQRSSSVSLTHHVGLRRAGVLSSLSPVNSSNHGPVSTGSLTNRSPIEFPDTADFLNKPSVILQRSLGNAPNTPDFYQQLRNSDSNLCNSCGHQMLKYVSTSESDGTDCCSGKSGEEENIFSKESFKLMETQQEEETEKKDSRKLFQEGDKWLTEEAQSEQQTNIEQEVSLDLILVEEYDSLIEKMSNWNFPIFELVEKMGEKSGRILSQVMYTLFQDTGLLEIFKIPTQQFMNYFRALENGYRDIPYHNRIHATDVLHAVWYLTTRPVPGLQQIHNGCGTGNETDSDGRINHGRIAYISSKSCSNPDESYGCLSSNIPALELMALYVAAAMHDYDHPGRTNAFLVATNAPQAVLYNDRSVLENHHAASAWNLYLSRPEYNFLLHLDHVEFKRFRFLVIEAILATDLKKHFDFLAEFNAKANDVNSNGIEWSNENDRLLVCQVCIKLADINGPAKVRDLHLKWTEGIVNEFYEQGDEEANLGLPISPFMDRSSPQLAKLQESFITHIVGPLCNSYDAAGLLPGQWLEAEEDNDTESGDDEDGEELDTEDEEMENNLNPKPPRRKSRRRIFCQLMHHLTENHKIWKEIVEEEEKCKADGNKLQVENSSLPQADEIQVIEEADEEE

IC50 (human full length PDE3A)	IC50 (SK-MEL-3 cells)	IC50 (human full length PDE3B)	IC50 (HeLa cells)	Compound
200 nM	9 nM	320 nM	4 nM	O=C1NN=C(c2ccc(-c3ccc(F)cc3Cl)c(F)c2)CO1 [Example 82, 5-(2′-Chloro-2,4′-difluorobiphenyl-4-yl)-3,6-dihydro-2H-1,3,4-oxadiazin-2-one]
170 nM	10 nM	230 nM	6 nM	Cc1ccc(-c2ccc(C3=NNC(=O)OC3)cc2F)c(C)c1 [Example 112, 5-(2-Fluoro-2′,4′-dimethyl[1,1′-biphenyl]-4-yl)-3,6-dihydro-2H-1,3,4-oxadiazin-2-one]
170 nM	25 nM	220 nM	14 nM	Cc1ccc(-c2ccc(C3=NNC(=O)O[C@H]3C)cc2C(F)(F)F)c(F)c1 [Example 168, (6S)-5-[2′-Fluoro-4′-methyl-2-(trifluoromethyl)[1,1′-biphenyl]-4-yl]-6-methyl-3,6-dihydro-2H-1,3,4-oxadiazin-2-one]
68 nM	21 nM	71 nM	14 nM	CC1(CNc2ccc(C3=NNC(=O)OC3)cc2C(F)(F)F)COC1 [Example 213, 5-[4-{[(3-Methyloxetan-3-yl)methyl]amino}-3-(trifluoromethyl)phenyl]-3,6-dihydro-2H-1,3,4-oxadiazin-2-one]
65 nM	16 nM	210 nM	14 nM	C[C@@H](O)CCNc1ccc(C2=NNC(=O)OC2)cc1C(F)(F)F [Example 217, 5-[4-{[(3R)-3-Hydroxybutyl]amino}-3-(trifluoromethyl)phenyl]-3,6-dihydro-2H-1,3,4-oxadiazin-2-one]
270 nM	26 nM	580 nM	12 nM	CCCCN(C)c1ccc(C2=NNC(=O)OC2)cc1C(F)(F)F [Example 134, 5-{4-[Butyl(methyl)amino]-3-(trifluoromethyl)phenyl}-3,6-dihydro-2H-1,3,4-oxadiazin-2-one]
67 nM	7 nM	110 nM	5 nM	Cc1ccc(-c2ccc(C3=NNC(=O)OC3)cc2C(F)(F)F)cn1 [Example 32, 5-[4-(6-Methylpyridin-3-yl)-3-(trifluoromethyl)phenyl]-3,6-dihydro-2H-1,3,4-oxadiazin-2-one]
140 nM	8 nM	363 nM	6 nM	CC(C)(O)CNc1ccc(C2=NNC(=O)OC2)cc1C(F)(F)F [Example 210, 5-{4-[(2-Hydroxy-2-methylpropyl)amino]-3-(trifluoromethyl)phenyl}-3,6-dihydro-2H-1,3,4-oxadiazin-2-one]
260 nM	38 nM	450 nM	16 nM	CN(c1ccc(C2=NNC(=O)OC2)cc1C(F)(F)F)C1CCCC1 [Example 132, 5-{4-[Cyclopentyl(methyl)amino]-3-(trifluoromethyl)phenyl}-3,6-dihydro-2H-1,3,4-oxadiazin-2-one]
230 nM	13 nM	190 nM	6 nM	O=C1NN=C(c2ccc(-c3cnsc3)c(C(F)(F)F)c2)CO1 [Example 49, 5-[4-(1,2-Thiazol-4-yl)-3-(trifluoromethyl)phenyl]-3,6-dihydro-2H-1,3,4-oxadiazin-2-one]
150 nM	31 nM	210 nM	18 nM	C[C@@H]1OC(=O)NN=C1c1ccc(-c2cc(F)ccc2F)c(C(F)(F)F)c1 [Example 171, (6S)-5-[2′,5′-Difluoro-2-(trifluoromethyl)[1,1′-biphenyl]-4-yl]-6-methyl-3,6-dihydro-2H-1,3,4-oxadiazin-2-one]
90 nM	14 nM	131 nM	6 nM	CC(C)CCNc1ccc(C2=NNC(=O)OC2)cc1C(F)(F)F [Example 220, 5-{4-[(3-Methylbutyl)amino]-3-(trifluoromethyl)phenyl}-3,6-dihydro-2H-1,3,4-oxadiazin-2-one]
65 nM	3 nM	95 nM	2 nM	CCCCNc1ccc(C2=NNC(=O)OC2)cc1C(F)(F)F [Example 66, 5-[4-(Butylamino)-3-(trifluoromethyl)phenyl]-3,6-dihydro-2H-1,3,4-oxadiazin-2-one]
100 nM	6 nM	250 nM	3 nM	O=C1NN=C(c2ccc(C3=CCCC3)c(F)c2)CO1 [Example 83, 5-[4-(Cyclopent-1-en-1-yl)-3-fluorophenyl]-3,6-dihydro-2H-1,3,4-oxadiazin-2-one]
140 nM	15 nM	110 nM	8 nM	C[C@@H]1OC(=O)NN=C1c1ccc(-c2ccccc2F)c(C(F)(F)F)c1 [Example 179, (6S)-5-[2′-Fluoro-2-(trifluoromethyl)[1,1′-biphenyl]-4-yl]-6-methyl-3,6-dihydro-2H-1,3,4-oxadiazin-2-one]
180 nM	> 100 nM	110 nM	55 nM	CC1CN(c2ccc(C3=NNC(=O)OC3)cc2F)CC(C)O1 (stereo not shown) [Example 24, 5-{4-[2,6-Dimethylmorpholin-4-yl]-3-fluorophenyl}-3,6-dihydro-2H-1,3,4-oxadiazin-2-one]
150 nM	12 nM	160 nM	6 nM	O=C1NN=C(c2ccc(-c3ccc(F)c(F)c3)c(F)c2)CO1 [Example 107, 5-(2,3′,4′-Trifluoro[1,1′-biphenyl]-4-yl)-3,6-dihydro-2H-1,3,4-oxadiazin-2-one]
25 nM	4 nM	47 nM	3 nM	O=C1NN=C(c2ccc(C3=CCCOC3)c(C(F)(F)F)c2)CO1 [Example 142, 5-[4-(5,6-dihydro-2H-pyran-3-yl)-3-(trifluoromethyl)phenyl]-3,6-dihydro-2H-1,3,4-oxadiazin-2-one]
48 nM	9 nM	66 nM	5 nM	O=C1NN=C(c2ccc(-c3cc(F)ccc3F)c(F)c2)CO1 [Example 100, 5-(2,2′,5′-Trifluoro[1,1′-biphenyl]-4-yl)-3,6-dihydro-2H-1,3,4-oxadiazin-2-one]
150 nM	65 nM	330 nM	40 nM	O=C1NN=C(c2ccc(Br)c(C(F)F)c2)CO1 [Intermediate 77, 5-[4-Bromo-3-(difluoromethyl)phenyl]-3,6-dihydro-2H-1,3,4-oxadiazin-2-one]
160 nM	17 nM	130 nM	12 nM	C[C@@H]1OC(=O)NN=C1c1ccc(-c2ccc(F)cc2F)c(C(F)(F)F)c1 [Example 177, (6S)-5-[2′,4′-Difluoro-2-(trifluoromethyl)[1,1′-biphenyl]-4-yl]-6-methyl-3,6-dihydro-2H-1,3,4-oxadiazin-2-one]
139 nM	5 nM	97 nM	3 nM	CC1(F)CCN(c2ccc(C3=NNC(=O)OC3)cc2F)CC1 [Example 5, 5-[3-Fluoro-4-(4-fluoro-4-methylpiperidin-1-yl)phenyl]-3,6-dihydro-2H-1,3,4-oxadiazin-2-one]
100 nM	14 nM	140 nM	8 nM	O=C1NN=C(c2ccc(-c3cc(F)cc(F)c3)c(F)c2)CO1 [Example 110, 5-(2,3′,5′-Trifluoro[1,1′-biphenyl]-4-yl)-3,6-dihydro-2H-1,3,4-oxadiazin-2-one]
31 nM	1 nM	47 nM	1 nM	CCCNc1ccc(C2=NNC(=O)OC2)cc1C(F)(F)F [Example 69, 5-[4-(Propylamino)-3-(trifluoromethyl)phenyl]-3,6-dihydro-2H-1,3,4-oxadiazin-2-one]
75 nM	29 nM	170 nM	15 nM	Cc1ccc(-c2ccc(C3=NNC(=O)OC3)cc2OC(F)(F)F)cn1 [Example 70, 5-[4-(6-Methylpyridin-3-yl)-3-(trifluoromethoxy)phenyl]-3,6-dihydro-2H-1,3,4-oxadiazin-2-one]
> 1000 nM	22 nM	> 1000 nM	11 nM	O=C1NN=C(c2ccc(-c3ccc(Cl)cn3)c(C(F)(F)F)c2)CO1 [Example 159, 5-[4-(5-Chloropyridin-2-yl)-3-(trifluoromethyl)phenyl]-3,6-dihydro-2H-1,3,4-oxadiazin-2-one]
220 nM	43 nM	230 nM	15 nM	Cc1cc(C2=NNC(=O)OC2)ccc1C1=CCOCC1 [Example 10, 5-[4-(3,6-Dihydro-2H-pyran-4-yl)-3-methylphenyl]-3,6-dihydro-2H-1,3,4-oxadiazin-2-one]

Compound	IC50 (human full length PDE3A)	IC50 (SK-MEL-3 cells)	IC50 (human full length PDE3B)	IC50 (HeLa cells)
CN1CC=C(c2ccc(C3=NNC(=O)OC3)cc2C(F)(F)F)CC1 [Example 133, 5-[4-(1-Methyl-1,2,3,6-tetrahydropyridin-4-yl)-3-(trifluoromethyl)phenyl]-3,6-dihydro-2H-1,3,4-oxadiazin-2-one]	> 1000 nM	51 nM	> 1000 nM	32 nM
